Experiments:
[1] = UV-Visible and fluorescence spectrometry; assay type: physicochemical; details: for λmax(nm)in EtOH: UV-Vis absorption maximum in EtOH; for Log ε: UV-Vis in EtOH; for λEm (nm): fluorescence emission, excited at 610 nm
Protocol: (§1) All of the new prepared phenothiazine-pyridine compounds are deep blue solid, the basic physiochemical properties are measured by UV-Visible and fluorescence spectrometry. […] The maximum absorption is about 650 nm in ethanol, and they are varied based on the compound structure. The fluorescence emission is about 680 nm when excited at 610 nm. All of these compounds have relatively high quantum yield, they are promising diagnostic and imaging agents. The lipophilicity is determined by the partition coefficient (log P), which can be obtained by measuring the UV-Vis absorption of the compound in phosphate buffer saline (PBS) before and after the partition equilibrium between n-octanol and PBS solution, and then calculated following the equation of: Log p=Log [(Abefore/Aafter)−1]. Wherein Abefore and Aafter are the absorption values in PBS solution before and after partition.

[2] = Partition coefficient (log P) between n-octanol and PBS by UV-Vis absorption; assay type: physicochemical
Protocol: as §1

[3] = tested on: normal fibroblast WI38 cells; test: Dark toxicity, MTT assay; assay type: cell-based; details: Homo sapiens, WI-38, 24 h, read-out: IC50 dark toxicity
Protocol: (§2) Cell lines and culture conditions: A549, HT29, MCF-7, MDA-MB-231 cell lines were maintained in RPMI1640 supplemented with fetal bovine serum (10%) and penicillin-streptomycin solution (1%), and WI38 cells were maintained in DMEM supplemented with fetal bovine serum (10%) and penicillin-streptomycin solution (1%). Approximately 1×10^4 (for A549, HT29, MCF-7, MDA-MB-231) or 1.5×10^4 (for WI38) cells per well were seeded in 96-well plate and incubated overnight light at 37° C. in a humidified atmosphere with 5% CO2.
(§3) Dark toxicity: Cells were incubated with different concentrations of photosensitive drug for 24 h in dark, and the cell viabilities were determined by MTT assay
The IC50 values (50% inhibitory concentration) of the prepared phenothiazine-pyridine compounds 8, 14, 15, 16, 17, 18, 19, 20, 21, 22, 23, and 24 to normal fibroblast cell line WI38 were measured by MTT assay.

A549 cell line [4] = test: Photocytotoxicity (PDT), MTT assay; assay type: cell-based; details: Homo sapiens, A549, light or radiation study, read-out: IC50 PDT
Protocol: as §2
(§4) Photocytotoxicity: Cells were incubated with different concentrations of photosensitive drug for 1 h in the dark, then the medium in the well was sucked by a syringe, and washed by PBS. Then a solution of new medium was added, and illuminated by light. After irradiation, the cells were incubated under dark at 37° C. for another 24 h, and the cell viabilities were determined by MTT assay.

HT29 cell line [5] = test: Photocytotoxicity (PDT), MTT assay; assay type: cell-based; details: Homo sapiens, HT-29, light or radiation study, read-out: IC50 PDT
Protocol: as §2, §4

MCF7 cell line [6] = test: Photocytotoxicity (PDT), MTT assay; assay type: cell-based; details: Homo sapiens, MCF7, light or radiation study, read-out: IC50 PDT
Protocol: as §2, §4

A549 cell line [7] = test: Dark toxicity, MTT assay; assay type: cell-based; details: Homo sapiens, A549, 24 h, read-out: IC50 DK
Protocol: as §2, §3

HT29 cell line [8] = test: Dark toxicity, MTT assay; assay type: cell-based; details: Homo sapiens, HT-29, 24 h, read-out: IC50 DK
Protocol: as §2, §3

MCF7 cell line [9] = test: Dark toxicity, MTT assay; assay type: cell-based; details: Homo sapiens, MCF7, 24 h, read-out: IC50 DK
Protocol: as §2, §3

S. aureus = test: Dark toxicity of photosensitizers on bacteria, CFU count; assay type: cell-based, Staphylococcus aureus; details: absence of light, 6 h
Protocol: (§5) Bacterial growth and culture: Gram-positive S. aureus or Gram-negative E. coli were grown on trypticase soy agar (TSA) for 24 h, then a colony was transferred into tryptica soy broth (TSB) and grown at 37° C. overnight at a 200 rpm speeds of shaking-up using a shaker incubator. The nutrient medium was centrifuged for 5 min at 8000 rpm and diluted by sterile 0.85% saline (pH 7.5) to concentrations of 10^8 CFU/ml, which was used for further incubation with photosensitizers in the following experiments.
(§6) Dark toxicities of the photosensitizers on bacteria: Bacterial suspensions were incubated with photosensitizers at various concentrations at 37° C. in the dark for 6 h. After that, 100 uL of cell suspension were spread on the TSA in 10-fold serial dilutions. Colony forming unit (CFU) was counted after incubation for 24 h at 37° C.

E. coli = test: as above; assay type: cell-based, Escherichia coli; details: absence of light, 6 h
Protocol: as §5, §6

Structure (SMILES) | λmax(nm)in EtOH [1] | Log ε [1] | λEm (nm) [1] | logP [2] | IC50 [3] | IC50 (A549 cell line [4]) | IC50 (HT29 cell line [5]) | IC50 (MCF7 cell line [6]) | IC50 (A549 cell line [7]) | IC50 (HT29 cell line [8]) | IC50 (MCF7 cell line [9]) | dark toxicity (S. aureus) | dark toxicity (E. coli)
CCCCCNc1cc2[s+]c3cc(N(CC)CC)ccc3nc2c2ccc(C)nc12 [Compound 15, 9-(diethylamino)-3-methyl-5-(pentylamino)pyrido[3,2-a]phenothiazin-7-ium chloride] | 651 nm | 4.91 | 684 nm | 1.4 | > 10 µM |  |  |  |  |  |  |  | 
CCN(CC)c1ccc2nc3c(cc(NC)c4nc(C)ccc43)[s+]c2c1 [Compound 18, 9-(diethylamino)-3-methyl-5-(methylamino)pyrido[3,2-a]phenothiazin-7-ium chloride] | 649 nm | 4.70 | 683 nm | 1.31 | 5 µM |  |  |  |  |  |  |  | 
CCCCN(CCCC)c1ccc2nc3c(cc(NCCC)c4nc(C)ccc43)[s+]c2c1 [Compound 24, 9-(dibutylamino)-3-methyl-5-(propylamino)pyrido[3,2-a]phenothiazin-7-ium chloride] | 654 nm | 4.86 | 688 nm | 3.4 | > 10 µM | 0.1 µM | 0.074 µM | 0.077 µM | 0.85 µM | 0.84 µM | 0.85 µM | essentially non-toxic | essentially non-toxic
CCCNc1c(I)c2[s+]c3cc(N(CC)CC)ccc3nc2c2ccc(C)nc12 [Compound 23, 9-(diethylamino)-6-iodo-3-methyl-5-(propylamino)pyrido[3,2-a]phenothiazin-7-ium chloride] | 633 nm | 4.87 | 666 nm | 1.48 | 5.2 µM | 0.68 µM | 0.071 µM | 0.12 µM | 3.3 µM | 2 µM | 0.9 µM | essentially non-toxic | essentially non-toxic
CCN(CC)c1ccc2nc3c(cc(NCCCNC)c4nc(C)ccc43)[s+]c2c1 [Compound 22, 9-(diethylamino)-3-methyl-5-(3-(methylamino)propylamino) pyrido[3,2-a]phenothiazin-7-ium chloride] | 658 nm | 4.81 | 686 nm | 0.65 | > 10 µM | 11.9 µM | 0.51 µM | 3.1 µM | 19.8 µM | 9.5 µM | 13.2 µM |  | 
CCCN(CCC)c1cc2[s+]c3cc(N(CC)CC)ccc3nc2c2ccc(C)nc12 [Compound 19, 9-(diethylamino)-5-(dipropylamino)-3-methylpyrido[3,2-a]phenothiazin-7-ium chloride] | 675 nm | 4.67 | 684 nm | 1.42 | 9.4 µM |  |  |  |  |  |  |  | 

— patent US10189862B2, “Phenothiazine-pyridine compounds and uses thereof” (The Chinese University of Hong Kong, priority 2016, dated 2019)
